# Measured values as given in US10323007B1, “N2N N4-disubstituted quinazoline-2,4-diamines and uses thereof” (University of South Florida, priority 2016, dated 2019).
# Like-named read-outs stand apart in the source and are kept apart here.
# Key:
# Assay type in all cases: cell-based, Acinetobacter baumannii
# [1] = tested on: A. baumannii 1649; assay: MIC assay, strain 1649
# Experimental: (§1) MIC and MBC assays were performed in this study as documented by us previously.^17,23,24,25 The A. baumannii strains used are detailed in Table 7.
# [2] = tested on: A. baumannii 1403; assay: MIC assay, strain 1403
# Experimental: as §1
# [3] = tested on: A. baumannii 1646; assay: MIC assay, strain 1646
# Experimental: as §1
# [4] = tested on: A. baumannii 1652; assay: MIC assay, strain 1652
# Experimental: as §1
# [5] = tested on: A. baumannii 1650; assay: MIC assay, strain 1650
# Experimental: as §1
# [6] = tested on: A. baumannii 1651; assay: MIC assay, strain 1651
# Experimental: as §1
# [7] = tested on: A. baumannii; assay: MIC assay, A. baumannii isolates (strain not given); conditions: for MIC: Acinetobacter baumannii, strain not given, read-out: MIC
# Experimental: as §1
# [8] = tested on: A. baumannii 1646; assay: minimal bactericidal concentration (MBC) assay, strain 1646; conditions: isolate 1646
# Excerpt: Lead quinazolines 4, 5, 26, 29, 27, and 30 were selected to be further evaluated for antimicrobial effects. The first assay utilized was a minimal bactericidal concentration (MBC) assay, to assess whether leads compounds were bacteriostatic or bactericidal. The six lead agents were screened to identify their MBC90 towards each of the six A. baumannii isolates used in the SAR studies (Table 8), however for simplicity only the representative data for isolate 1646 is detailed below (Table 6). […] Further to this, we were able to obtain complete eradication of bacterial growth for these two compounds at 1 μM for 24 and 5 μM for 25.
# as §1
# [9] = Acinetobacter baumannii, strain 1649, Tables 1, 3, 4, 5 and footnotes, read-out: 1649 MIC
# [10] = Acinetobacter baumannii, strain 1403, Tables 1, 3, 4, 5 and footnotes, read-out: 1403 MIC
# [11] = Acinetobacter baumannii, strain 1646, Tables 1, 3, 4, 5 and footnotes, read-out: 1646 MIC
# [12] = Acinetobacter baumannii, strain 1652, Tables 1, 3, 4, 5 and footnotes, read-out: 1652 MIC
# [13] = Acinetobacter baumannii, strain 1650, Tables 1, 3, 4, 5 and footnotes, read-out: 1650 MIC
# [14] = Acinetobacter baumannii, strain 1651, Tables 1, 3, 4, 5 and footnotes, read-out: 1651 MIC
# [15] = Acinetobacter baumannii, strain 1649, Table 2, read-out: 1649 MIC
# [16] = Acinetobacter baumannii, strain 1403, Table 2, read-out: 1403 MIC
# [17] = Acinetobacter baumannii, strain 1646, Table 2, read-out: 1646 MIC
# [18] = Acinetobacter baumannii, strain 1652, Table 2, read-out: 1652 MIC
# [19] = Acinetobacter baumannii, strain 1650, Table 2, read-out: 1650 MIC
# [20] = Acinetobacter baumannii, strain 1651, Table 2, read-out: 1651 MIC
# [21] = Acinetobacter baumannii, 1649, read-out: 1649 MIC
# [22] = Acinetobacter baumannii, 1403, read-out: 1403 MIC
# [23] = Acinetobacter baumannii, 1646, read-out: 1646 MIC
# [24] = Acinetobacter baumannii, 1652, read-out: 1652 MIC
# [25] = Acinetobacter baumannii, 1650, read-out: 1650 MIC
# [26] = Acinetobacter baumannii, 1651, read-out: 1651 MIC
"MIC [1, 9]","MIC [2, 10]","MIC [3, 11]","MIC [4, 12]","MIC [5, 13]","MIC [6, 14]",Compound,also measured
25 µM,50 µM,2 µM,20 µM,15 µM,6 µM,"CNc1nc(NCc2ccccc2)nc2ccc(Cl)cc12 [Compound 1, N^2-Benzyl-6-chloro-N^4-methylquinazoline-2,4-diamine]",–
30 µM,> 50 µM,6 µM,50 µM,> 50 µM,10 µM,"CNc1nc(NCc2ccccc2)nc2cc(Cl)ccc12 [Compound 2, N^2-Benzyl-7-chloro-N^4-methylquinazoline-2,4-diamine]",–
25 µM,> 50 µM,2 µM,30 µM,50 µM,10 µM,"CNc1nc(NCc2ccccc2)nc2ccc(OC)cc12 [Compound 3, N^2-Benzyl-6-methoxy-N^4-methylquinazoline-2,4-diamine]",–
–,–,–,–,–,–,"CNc1nc(NCc2ccccc2)nc2cc(Br)ccc12 [Compound 6, N^2-Benzyl-7-bromo-N^4-methylquinazoline-2,4-diamine]","MIC [1, 15]: 25 µM; MIC [2, 16]: > 50 µM; MIC [3, 17]: 6 µM; MIC [4, 18]: > 50 µM; MIC [5, 19]: > 50 µM; MIC [6, 20]: 10 µM"
–,–,–,–,–,–,"CNc1nc(NCc2ccccc2)nc2cc(C)ccc12 [Compound 7, N^2-Benzyl-N^4,7-dimethylquinazoline-2,4-diamine]","MIC [1, 15]: 25 µM; MIC [2, 16]: 50 µM; MIC [3, 17]: 12 µM; MIC [4, 18]: 35 µM; MIC [5, 19]: 50 µM; MIC [6, 20]: 12 µM"
–,–,–,–,–,–,"CNc1nc(NCc2ccccc2)nc2ccccc12 [Compound 8, N^2-benzyl-N^4-methylquinazolin-2,4-diamine]","MIC [1, 15]: > 50 µM; MIC [2, 16]: > 50 µM; MIC [7]: ≥ 50 µM; MIC [3, 17]: 50 µM; MIC [4, 18]: > 50 µM; MIC [5, 19]: > 50 µM; MIC [6, 20]: > 50 µM"
50 µM,> 50 µM,4 µM,> 50 µM,50 µM,6 µM,"CNc1nc(NCc2ccccc2)c2cc(Cl)ccc2n1 [Compound 9, N^4-Benzyl-6-chloro-N^2-methylquinazoline-2,4-diamine]",–
50 µM,> 50 µM,2 µM,> 50 µM,> 50 µM,> 50 µM,"CNc1nc(NCc2ccccc2)c2cc(Br)ccc2n1 [Compound 10, N^4-Benzyl-6-bromo-N^2-methylquinazoline-2,4-diamine]",–
> 50 µM,> 50 µM,6 µM,> 50 µM,> 50 µM,12 µM,"CNc1nc(NCc2ccccc2)c2cc(C)ccc2n1 [Compound 11, N^4-Benzyl-N^2,6-dimethylquinazoline-2,4-diamine]",–
> 50 µM,> 50 µM,6 µM,> 50 µM,> 50 µM,8 µM,"CNc1nc(NCc2ccccc2)c2cc(OC)ccc2n1 [Compound 12, N^4-Benzyl-6-methoxy-N^2-methylquinazoline-2,4-diamine]",–
> 50 µM,> 50 µM,4 µM,> 50 µM,> 50 µM,> 50 µM,"CNc1nc(NCc2ccccc2)c2ccc(Cl)cc2n1 [Compound 13, N^4-Benzyl-7-chloro-N^2-methylquinazoline-2,4-diamine]",–
> 50 µM,> 50 µM,4 µM,> 50 µM,> 50 µM,> 50 µM,"CNc1nc(NCc2ccccc2)c2ccc(Br)cc2n1 [Compound 14, N^4-Benzyl-7-bromo-N^2-methylquinazoline-2,4-diamine]",–
> 50 µM,> 50 µM,12 µM,> 50 µM,> 50 µM,> 50 µM,"CNc1nc(NCc2ccccc2)c2ccc(C)cc2n1 [Compound 15, N^4-Benzyl-N^2,7-dimethylquinazoline-2,4-diamine]",–
> 50 µM,> 50 µM,12 µM,> 50 µM,> 50 µM,> 50 µM,"CNc1nc(NCCc2ccccc2)nc2ccccc12 [Compound 16, N^4-Methyl-N^2-phenethylquinazoline-2,4-diamine]",fold more active than the benzyl analogue 8 ([7]; MIC comparison): 4 fold
> 50 µM,> 50 µM,2 µM,> 50 µM,> 50 µM,> 50 µM,"CNc1nc(NCCc2ccccc2)nc2ccc(Cl)cc12 [Compound 17, 6-Chloro-N^4-methyl-N^2-phenethylquinazoline-2,4-diamine]",MIC [7]: 2 to 4 µM
> 50 µM,> 50 µM,4 µM,> 50 µM,> 50 µM,> 50 µM,"CNc1nc(NCCc2ccccc2)nc2ccc(OC)cc12 [Compound 18, 6-Methoxy-N^4-methyl-N^2-phenethylquinazoline-2,4-diamine]",MIC [7]: 2 to 4 µM
> 50 µM,> 50 µM,2 µM,> 50 µM,> 50 µM,10 µM,"CNc1nc(NCCc2ccccc2)nc2ccc(Br)cc12 [Compound 19, 6-Bromo-N^4-methyl-N^2-phenethylquinazoline-2,4-diamine]",MIC [7]: 2 to 4 µM
> 50 µM,> 50 µM,2 µM,> 50 µM,> 50 µM,10 µM,"CNc1nc(NCCc2ccccc2)nc2ccc(C)cc12 [Compound 20, N^4,6-Dimethyl-N^2-phenethylquinazoline-2,4-diamine]",MIC [7]: 2 to 4 µM
10 µM,25 µM,2 µM,25 µM,20 µM,25 µM,"C=Cc1ccc2nc(NCc3ccccc3)nc(NC)c2c1 [Compound 22, N^2-Benzyl-N^4-methyl-6-vinylquinazoline-2,4-diamine]",–
10 µM,30 µM,2 µM,30 µM,30 µM,2 µM,"CCc1ccc2nc(NCc3ccccc3)nc(NC)c2c1 [Compound 23, N^2-Benzyl-6-ethyl-N^4-methylquinazoline-2,4-diamine]",–
25 µM,> 50 µM,2 µM,> 50 µM,> 50 µM,10 µM,"C=C(C)c1ccc2nc(NCc3ccccc3)nc(NC)c2c1 [Compound 24, N^2-Benzyl-N^4-methyl-6-(prop-1-en-2-yl)quinazoline-2,4-diamine]",concentration giving complete eradication of bacterial growth [8]: 1 µM
50 µM,> 50 µM,2 µM,> 50 µM,> 50 µM,30 µM,"CNc1nc(NCc2ccccc2)nc2ccc(C3=CCCC3)cc12 [Compound 28, N^2-Benzyl-6-(cyclopent-1-en-1-yl)-N^4-methylquinazoline-2,4-diamine]",–
–,–,–,–,–,–,"CNc1nc(NCc2ccccc2)nc2ccc(-c3ccccc3)cc12 [Compound 31, N^2-Benzyl-N^4-methyl-6-phenylquinazoline-2,4-diamine]","MIC [1, 21]: 20 µM; MIC [2, 22]: 30 µM; MIC [3, 23]: 10 µM; MIC [4, 24]: 50 µM; MIC [5, 25]: 20 µM; MIC [6, 26]: 2 µM"
–,–,–,–,–,–,"CNc1nc(NCc2ccccc2)nc2ccc(-c3ccco3)cc12 [Compound 32, N^2-Benzyl-6-(furan-2-yl)-N^4-methylquinazoline-2,4-diamine]","MIC [1, 21]: > 50 µM; MIC [2, 22]: 40 µM; MIC [3, 23]: 25 µM; MIC [4, 24]: > 50 µM; MIC [5, 25]: > 50 µM; MIC [6, 26]: 15 µM"
